This assay addresses T1, recombinant human 11 β-HSD1 (Homo sapiens, UniProt P28845).
T1 construct: made in house; host or cells: E. coli
Kind of assay: 11 β-HSD1 SPA Assay (Scintillation Proximity Assay). It is filed as biochemical. The gist of the method:
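Scintillation proximity read-out of cortisol formed from 40 nM [3H]cortisone by purified recombinant human enzyme (30-100 nM, E. coli) with 1 mM NADPH, pH7.4, 2 hours at room temperature; beads with cortisol antibody and glycyrrhetinic acid stop the reaction, read next day. IC50 derived from inhibition normalised to background and maximal wells.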
T1 sequence (P28845 whole entry): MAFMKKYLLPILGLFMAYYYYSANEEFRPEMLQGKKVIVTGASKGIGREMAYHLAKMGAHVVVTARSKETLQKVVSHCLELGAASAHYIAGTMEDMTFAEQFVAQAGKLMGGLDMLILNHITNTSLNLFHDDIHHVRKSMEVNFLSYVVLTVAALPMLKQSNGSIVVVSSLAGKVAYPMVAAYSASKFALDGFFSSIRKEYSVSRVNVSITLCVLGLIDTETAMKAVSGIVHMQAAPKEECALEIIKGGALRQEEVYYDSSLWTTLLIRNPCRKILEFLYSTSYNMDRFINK
What is called IC50 is the midpoint of a concentration-inhibition curve. Take `O=C(NC1CC1)c1ccc(N2[C@@H]3CC[C@H]2C[C@@H](NC(=O)C2(c4ccc(Cl)cc4)CC2)C3)cc1Cl` [Example 63, 2-chloro-4-[3-endo-({[1-(4-chlorophenyl)cyclopropyl]carbonyl}amino)-8-azabicyclo[3.2.1]oct-8-yl]-N-cyclopropylbenzamide]: the IC50 is less than 200 nM.
With `CC(C)(Oc1ccc(C(F)(F)F)cn1)C(=O)N[C@H]1C[C@H]2CC[C@@H](C1)N2c1ccc(C(N)=O)cn1` [Example 150] the figure was less than 200 nM; with `CC(C)(Oc1c(Cl)cc(F)cc1C(F)(F)F)C(=O)N[C@H]1C[C@H]2CC[C@@H](C1)N2c1ccc(S(C)(=O)=O)cc1` [Example 252, 2-{[2-chloro-4-fluoro-6-(trifiuoromethyl)phenyl]oxy}-2-methyl-N-{8-[4-(methylsulfonyl)phenyl]-8-azabicyclo[3.2.1]oct-3-endo-yl}propanamide], less than 200 nM; with `CC(C)(Oc1ccc(Cl)cc1Cl)C(=O)N[C@H]1C[C@H]2CC[C@@H](C1)N2c1ccc(C(=O)NCC(F)(F)F)cc1F` [Example 129, 4-[3-endo-({2-[(2,4-dichlorophenyl)oxy]-2-methylpropanoyl}amino)-8-azabicyclo[3.2.1]oct-8-yl]-3-fluoro-N-(2,2,2-trifluoroethyl)benzamide], less than 200 nM.
With `Cc1cc(C(=O)NC2CC2)cnc1N1[C@@H]2CC[C@H]1C[C@@H](NC(=O)C(C)(C)Oc1ccc(Cl)cc1)C2` [Example 40, 6-[3-endo-({2-[(4-chlorophenyl)oxy]-2-methylpropanoyl}amino)-8-azabicyclo[3.2.1]oct-8-yl]-N-cyclopropyl-5-methylpyridine-3-carboxamide] the figure was less than 200 nM; with `CC(C)c1cc(Cl)ccc1OC(C)(C)C(=O)N[C@H]1C[C@H]2CC[C@@H](C1)N2c1ccc(C(N)=O)cn1` [Example 331, 6-{3-endo-[(2-{[4-chloro-2-(1-methylethyl)phenyl]oxy}-2-methylpropanoyl)amino]-8-azabicyclo[3.2.1]oct-8-yl}pyridine-3-carboxamide], less than 200 nM.
With `CC(C)(Oc1cc(Cl)c(F)cc1Cl)C(=O)N[C@H]1C[C@H]2CC[C@@H](C1)N2c1ncc(C(=O)NCC(F)(F)F)cc1F` [Example 162, 6-[3-endo-({2-[(2,5-dichloro-4-fluorophenyl)oxy]-2-methylpropanoyl}amino)-8-azabicyclo[3.2.1]oct-8-yl]-5-fluoro-N-(2,2,2-trifluoroethyl)pyridine-3-carboxamide] the figure was less than 200 nM; with `CC(C)(Oc1ccc(Cl)cc1S(C)(=O)=O)C(=O)N[C@H]1C[C@H]2CC[C@@H](C1)N2c1ccc(S(C)(=O)=O)cn1` [Example 324, 2-{[4-chloro-2-(methylsulfonyl)phenyl]oxy}-2-methyl-N-{8-[5-(methylsulfonyl)pyridin-2-yl]-8-azabicyclo[3.2.1]oct-3-endo-yl}propanamide], less than 2000 nM; with `CC(C)(Oc1ccc(C(C)(C)O)cc1Cl)C(=O)N[C@H]1C[C@H]2CC[C@@H](C1)N2c1ccc(C(=O)NCC(F)(F)F)cn1` [Example 391, 6-[3-endo-({2-[2-chloro-4-(2-hydroxypropan-2-yl)phenoxy]-2-methylpropanoyl}amino)-8-azabicyclo[3.2.1]oct-8-yl]-N-(2,2,2-trifluoroethyl)pyridine-3-carboxamide], less than 200 nM.
In the case of `C[C@H](NC(=O)c1ccc(N2C3CCC2CC(NC(=O)C(C)(C)Oc2cc(F)c(Cl)cc2Cl)C3)nc1)C(F)(F)F` (stereo partly drawn) [Example 425, 6-(3-endo-{[2-(2,4-dichloro-5-fluorophenoxy)-2-methylpropanoyl]amino}-8-azabicyclo[3.2.1]oct-8-yl)-N-[(2S)-1,1,1-trifluoropropan-2-yl]pyridine-3-carboxamide], the IC50 was less than 200 nM.
For the compound `CC(C)(Oc1ccc(Cl)cc1Cl)C(=O)N[C@H]1C[C@H]2CC[C@@H](C1)N2c1ccc(NC(=O)C(F)(F)F)cc1` [Example 116, 2-[(2,4-dichlorophenyl)oxy]-2-methyl-N-(8-{4-[(trifluoroacetyl)amino]phenyl}-8-azabicyclo[3.2.1]oct-3-endo-yl)propanamide], the IC50 was less than 200 nM.
On to `CC(C)(Oc1ccc(Cl)cc1C(F)(F)F)C(=O)N[C@H]1C[C@H]2CC[C@@H](C1)N2c1ccc(S(C)(=O)=O)nc1` [Example 299, 2-{[4-chloro-2-(trifluoromethyl)phenyl]oxy}-2-methyl-N-{8-[6-(methylsulfonyl)pyridin-3-yl]-8-azabicyclo[3.2.1]oct-3-endo-yl}propanamide], for which the half-maximal inhibitory concentration (IC50) is less than 200 nM.
With `CS(=O)(=O)c1ccc(N2[C@@H]3CC[C@H]2C[C@@H](NC(=O)C2(c4ccc(F)c(F)c4)CC2)C3)nc1` [Example 281, 1-(3,4-difluorophenyl)-N-{8-[5-(methylsulfonyl)pyridin-2-yl]-8-azabicyclo[3.2.1]oct-3-endo-yl}cyclopropanecarboxamide] the figure was less than 2000 nM; with `CC(C)(Oc1ccc2ccccc2c1Cl)C(=O)N[C@H]1C[C@H]2CC[C@@H](C1)N2c1ccc(C(N)=O)cn1` [Example 271, 6-[3-endo-({2-[(1-chloronaphthalen-2-yl)oxy]-2-methylpropanoyl}amino)-8-azabicyclo[3.2.1]oct-8-yl]pyridine-3-carboxamide], less than 200 nM.
With `CC(C)(Oc1ccc(Cl)cc1OC(F)(F)F)C(=O)NC1CC2CCC(C1)N2c1ccc(C(=O)N2CCC(O)C2)cn1` (stereo not drawn) [Example 454, 2-[4-chloro-2-(trifluoromethoxy)phenoxy]-n-(8-{5-[(3-hydroxypyrrolidin-1-yl)carbonyl]pyridin-2-yl}-8-azabicyclo[3.2.1]oct-3-endo-yl)-2-methylpropanamide] the figure was less than 200 nM; with `C[C@@H](NC(=O)c1ccc(N2C3CCC2CC(NC(=O)C(C)(C)Oc2ccc(F)cc2Cl)C3)nc1)C(F)(F)F` (stereo partly drawn) [Example 452, 6-(3-endo-{[2-(2-chloro-4-fluorophenoxy)-2-methylpropanoyl]amino}-8-azabicyclo[3.2.1]oct-8-yl)-N-[(2R)-1,1,1-trifluoropropan-2-yl]pyridine-3-carboxamide], less than 200 nM; with `CC(C)(Oc1cc(C(C)(C)O)c(F)cc1F)C(=O)N[C@H]1C[C@H]2CC[C@@H](C1)N2c1ccc(C(=O)NCC(F)F)cn1` [Example 468, N-(2,2-difluoroethyl)-6-[3-endo-({2-[2,4-difluoro-5-(2-hydroxypropan-2-yl)phenoxy]-2-methylpropanoyl}amino)-8-azabicyclo[3.2.1]oct-8-yl]pyridine-3-carboxamide], less than 200 nM.
Regarding `C[C@H](CO)NC(=O)c1ccc(N2C3CCC2CC(NC(=O)C(C)(C)Oc2ccc(Cl)cc2Cl)C3)nc1` (stereo partly drawn) [Example 398, 6-(3-endo-{[2-(2,4-dichlorophenoxy)-2-methylpropanoyl]amino}-8-azabicyclo[3.2.1]oct-8-yl)-N-[(2R)-1-hydroxypropan-2-yl]pyridine-3-carboxamide], the half-inhibitory concentration (IC50) was less than 200 nM.
With `CC(C)(Oc1ccc(F)cc1Cl)C(=O)N[C@H]1C[C@H]2CC[C@@H](C1)N2c1ccc(C(N)=O)cn1` [Example 74, 6-[3-endo-({2-[(2-chloro-4-fluorophenyl)oxy]-2-methylpropanoyl}amino)-8-azabicyclo[3.2.1]oct-8-yl]pyridine-3-carboxamide] the figure was less than 200 nM; with `CC(C)(Oc1ccc(F)c(C(F)(F)F)c1)C(=O)N[C@H]1C[C@H]2CC[C@@H](C1)N2c1ccc(C(N)=O)cn1` [Example 187, 6-{3-endo-[(2-{[4-fluoro-3-(trifluoromethyl)phenyl]oxy}-2-methylpropanoyl)amino]-8-azabicyclo[3.2.1]oct-8-yl}pyridine-3-carboxamide], less than 200 nM; with `CC(C)(Oc1ccc(Cl)cc1Cl)C(=O)N[C@H]1C[C@H]2CC[C@@H](C1)N2c1ccc(C(=O)NC2CCOCC2)cn1` [Example 378, 6-(3-endo-{[2-(2,4-dichlorophenoxy)-2-methylpropanoyl]amino}-8-azabicyclo[3.2.1]oct-8-yl)-N-(tetrahydro-2h-pyran-4-yl)pyridine-3-carboxamide], less than 200 nM.
With `CC(C)(Oc1ccc(F)cc1F)C(=O)N[C@H]1C[C@H]2CC[C@@H](C1)N2c1ccc(S(C)(=O)=O)cn1` [Example 200, 2-[(2,4-difluorophenyl)oxy]-2-methyl-N-{8-[5-(methylsulfonyl)pyridin-2-yl]-8-azabicyclo[3.2.1]oct-3-endo-yl}propanamide] the figure was less than 200 nM; with `CC(C)(Oc1ccc(Cl)cc1OC(F)F)C(=O)N[C@H]1C[C@H]2CC[C@@H](C1)N2c1ccc(C(=O)NCC(F)F)cn1` [Example 469, 6-[3-endo-({2-[4-chloro-2-(difluoromethoxy)phenoxy]-2-methylpropanoyl}amino)-8-azabicyclo[3.2.1]oct-8-yl]-N-(2,2-difluoroethyl)pyridine-3-carboxamide], less than 200 nM.
With `CC(C)(Oc1ccc(Cl)cc1Cl)C(=O)N[C@H]1C[C@H]2CC[C@@H](C1)N2c1ccc(S(C)(=O)=O)cc1` [Example 120, 2-[(2,4-dichlorophenyl)oxy]-2-methyl-N-{8-[4-(methylsulfonyl)phenyl]-8-azabicyclo[3.2.1]oct-3-endo-yl}propanamide] the figure was less than 200 nM.
Consider `CC(C)(Oc1ccc(F)cc1C(F)(F)F)C(=O)NC1CC2CCC(C1)N2c1ccc(C(=O)NCC(O)C(F)(F)F)cn1` (stereo not drawn) [Example 459, 6-[3-endo-({2-[4-fluoro-2-(trifluoromethyl)phenoxy]-2-methylpropanoyl}amino)-8-azabicyclo[3.2.1]oct-8-yl]-N-(3,3,3-trifluoro-2-hydroxypropyl)pyridine-3-carboxamide], for which the half-maximal inhibitory concentration (IC50) is less than 200 nM.
With `CC(C)(Oc1ccc(-c2ccccc2)cc1Cl)C(=O)N[C@H]1C[C@H]2CC[C@@H](C1)N2c1ccc(C(N)=O)cn1` [Example 266, 6-[3-endo-({2-[(3-chlorobiphenyl-4-yl)oxy]-2-methylpropanoyl}amino)-8-azabicyclo[3.2.1]oct-8-yl]pyridine-3-carboxamide] the figure was less than 200 nM.
